Data from patent US20120149724A1, “MODULATING ENDOGENOUS BETA-ENDORPHIN LEVELS” (THE GENERAL HOSPITAL CORPORATION, priority 2009, published 2012).
Entries after “also recorded” stand apart in the source; their conditions may differ.

System: UV-exposed C57BL/6 mice
Test: pain thresholds (von Frey and hot plate) over daily low-dose UVB exposure
Type: in vivo
Conditions: UVB 50 mJ/cm2/day, 5 days/week for 6 weeks, 10 mg/kg ip 15 minutes before testing
Description: To obtain the data shown in FIGS. 7A, 7B and 7C, eight-week-old male C57BL/6 mice were dorsally depilated and either exposed to 50 mJ/cm2/day or mock exposed 5 days/week for 6 weeks. Blood was drawn prior to, once weekly during, and once weekly for 2 weeks following the end of the regimen for β-endorphin measurement. In addition, pain thresholds in both the von Frey and hot plate assay were measured prior to, twice weekly during, and twice weekly for 2 weeks following the end of the regimen. One subgroup of UV-exposed mice and one subgroup of mock-treated mice were injected with naloxone (10 mg/kg, ip) and another subgroup of UV-exposed mice and mock-treated mice were injected with saline (ip) 15 minutes prior to each pain threshold testing. Pain threshold measurements were taken on 2 non-consecutive days and on a different day from the blood draws each week. […] Error bars indicate +/−SEM. […] Error bars indicate +/− standard deviation. […]
Eight-week-old male C57BL/6 mice were dorsally depilated and either exposed to 50 mJ/cm2/day or mock exposed 5 days/week for 6 weeks. […] In addition, pain thresholds in both the von Frey and hot plate assay were measured prior to, twice weekly during, and twice weekly for 2 weeks following the end of the regimen. […]

SMILES: C=CCN1CC[C@]23c4c5ccc(O)c4O[C@H]2C(=O)CC[C@@]3(O)[C@H]1C5 [naloxone]
- effect on UV-induced changes in pain thresholds / opioid-mediated phenotypes: naloxone-reversible; also recorded: reversed
